Measurements published in PMC11468213, “Ionic Liquid‐Mediated Transdermal Delivery of Thrombosis‐Detecting Nanosensors” (Advanced Healthcare Materials, 2022).

Legend:
[1] = system: acute pulmonary embolism mouse model; test: Urinary reporter detection of thrombosis in thromboplastin-injected acute pulmonary embolism mouse model; assay type: in vivo, Swiss Webster mice; details: for ROC AUC: n = 5 per group
Excerpt: Next, we sought to assess whether transdermally delivered nanosensors could detect disease in this model. Thrombin substrate flanked by near‐IR dye, Cy7, was conjugated to PEG nanoparticles (TDN‐Cy7), were solvated in 30% CAGE and administered topically to Swiss Webster mice. The TDN‐Cy7 nanoparticles were designed such that cleavage of the thrombin substrate would liberate a renally clearable fragment with Cy7 that could enable quantification in the urine by fluorescence. Concomitant quantification of plasma‐borne TDN‐Cy7 was performed to normalize the urine signal in order to mitigate the mouse‐to‐mouse variation that may arise due to the heterogeneous skin conditions present across individual subjects. Thromboplastin was intravenously administered to mice at different time points after topical administration of CAGE/TDN solution on the dorsal skin. Urine collection was performed 30 min after thromboplastin injection, and fluorescence measurement was carried out to detect reporter peptides in the urine. […] These finding indicate that topical administration with CAGE achieves circulatory delivery of nanosensors that enable sustained, noninvasive monitoring of thromboembolism in vivo as opposed to bolus injection into the blood.
Figure 4 A) Urinary reporter concentrations relative to plasma TDN‐Cy7 concentrations for thromboplastin‐injected (Thrombosis) and healthy control mice at different time points after nanosensor administration (mean ± s.d., n = 5 mice per group; *P < 0.05 and **P < 0.01, two‐tailed Mann–Whitney's […]). […] C) Urinary reporter concentrations in healthy versus thrombosis mice 6 h after intravenous injection of TDN‐Cy7 (mean ± s.d., n = 5 mice per group; ns: not significant). D) ROC curve calculated from data at panel (C) (AUC = 0.60).
For urine detection of thrombosis, 10 µL of CAGE (30%) containing TDN‐Cy7 nanosensor (4nmoles by peptide) was administered onto previously shaved dorsal skin of Swiss Webster mice, which were subsequently returned to their cages. At different time points postadministration, thromboplastin (0.75 µL g^−1 bodyweight of 4 mg mL^−1 stock in PBS) was injected intravenously, and both urine and blood (retroorbital draw) were collected 30 min p.i. Plasma is collected similar to the pharmacokinetic study and both urine and plasma were stored at −80 °C. Cleaved peptide reporters in the urine was quantified with fluorescence of Cy7 (Excitation 750 nm, emission 790 nm). Plasma levels of TDN‐Cy7 were similarly quantified using fluorescence and used for normalizing the urine signals.

[2] = Dynamic light scattering size analysis of nanosensors in CAGE; assay type: physicochemical
Excerpt: (§1) To assess the solubility, stability, and activity of our nanosensors in CAGE, we conjugated a thrombin substrate (–GGfPRSGGG–) to 40 kDa PEG nanoparticles at an 8:1 substrate:nanoparticle ratio. The substrates were flanked by 5‐carboxyfluorescein (5‐FAM) and a Förster resonance energy transfer quencher molecule (CPQ2) in close proximity, such that proteolytic cleavage would result in fluorescence signal (nanoparticle was denoted as TDN‐qFAM, Figure 1A). […] In addition, the colloidal stability of TDN‐qFAM was assessed by the absorption spectrum of TDN‐qFAM in the presence and absence of CAGE after 24 h of room temperature storage (Figure 1C). […]
(§2) The CAGE and TDNs coformulation was prepared by addition of 1 mL of CAGE onto 1 mg of conjugated PEG powder, followed by iterative short mixing and ultrasonication steps until a clear solution was observed. […] Size analysis was performed in dynamic light scattering (ZetaSizer), and absorbance spectra were obtained in Tecan Spectrophotometer. For in vitro cleavage assays, recombinant thrombin (10 × 10^−9 M working concentration) was mixed with TDN‐Q in CAGE (30%) solution (10 × 10^−6 M by peptide), and cleavage was monitored by fluorescence at 535 nm of dequenched 5‐carboxyfluorescein (5‐FAM). […]

[3] = Colloidal stability by absorption spectrum after storage; assay type: physicochemical; details: presence and absence of CAGE; 24 h room temperature storage; absorbance spectrum
Excerpt: as §1, §2

[4] = molecular target: recombinant thrombin (Homo sapiens, UniProt P00734); test: Fluorescence dequenching cleavage assay with recombinant thrombin; assay type: biochemical; details: fluorescence at 535 nm, triplicate
Excerpt: To assess the solubility, stability, and activity of our nanosensors in CAGE, we conjugated a thrombin substrate (–GGfPRSGGG–) to 40 kDa PEG nanoparticles at an 8:1 substrate:nanoparticle ratio. The substrates were flanked by 5‐carboxyfluorescein (5‐FAM) and a Förster resonance energy transfer quencher molecule (CPQ2) in close proximity, such that proteolytic cleavage would result in fluorescence signal (nanoparticle was denoted as TDN‐qFAM, Figure 1A). […] In addition, the colloidal stability of TDN‐qFAM was assessed by the absorption spectrum of TDN‐qFAM in the presence and absence of CAGE after 24 h of room temperature storage (Figure 1C). […] We then investigated whether the presence of CAGE components influenced the stability of the peptide substrate and the activity of thrombin against TDN‐qFAM. […] However, upon stepwise dilution of CAGE with phosphate buffered saline (PBS), the functionality of TDN‐qFAM against thrombin cleavage was improved.
Figure 1 A) Chemical components of CAGE ionic liquid and schematic representation of TDN‐qFAM nanoparticles with thrombin substrate sequence. B) Dynamic light scattering and C) absorbance spectra of TDN‐qFAM in PBS and CAGE solutions. […]) Fluorescence dequenching experiment for enzyme cleavage kinetics in the presence (empty circles) and absence (full circles) of recombinant thrombin in the TDN‐qFAM/CAGE solution. […]

[5] = molecular target: T1, endogenous thrombin (Mus musculus, UniProt P19221); test: Cleavage kinetics in mouse serum at different CAGE concentrations; assay type: biochemical; details: 37 °C, fluorescence
T1 construct: The cleavage study was carried out in mouse serum obtained from Sigma Aldrich; tissue Sigma Aldrich; host or cells: mouse serum

[6] = Ex vivo skin penetration, Franz diffusion cell, porcine skin; assay type: in vitro ADME; details: 300 µL, 37 °C, 24 h
Procedure: Porcine skin samples were placed on Franz diffusion cells, and the diffusion of TDN‐qFAM nanoparticles was tested with different concentrations of CAGE present in the formulation.
Figure 5 A) Confocal microscopy image of a paraffin‐embedded porcine skin section after 24 h of topical administration of TDN‐qFAM in 100% CAGE. Left: bright field; right: fluorescence image. Scale bar: 200 µm. B) Quantitative results of nanoparticles found in ex vivo porcine skin layers using Franz diffusion cell set‐up with different CAGE concentrations. (mean ± s.d., n = 3 independent skin slices).
The skin penetration studies were undertaken using porcine skin in Franz diffusion cells, as described previously in full.^[ [23] ^] Briefly, thawed porcine skin (CBSET, Lexington MA) or mouse skin removed from Swiss Webster strain was placed in a diffusion cell with the stratum corneum facing upwards. The acceptor component of the cell was filled with PBS and equipped with a magnetic stirrer bar. 300 µL was placed on top of the skin, ensuring full coverage. The diffusion cell was placed on a stirrer plate at 37 °C for 24 h, at which point the skin was removed and the surface washed gently with PBS. For quantitative analysis, the stratum corneum was removed by tape stripping (ten layers), the epidermis was separated from the dermis with a scalpel, and a 4 mm punch was used thrice to remove a third of the dermis (by area). The tissue was then placed into a 50% methanol/PBS mixture, and left to shake overnight at RT to extract the drug. 100 µL of the extracted fluid was then placed into a black Corning 96‐well plate and analyzed using a i3 SpectraMax plate reader, with excitation wavelength of 750 nm and an emission wavelength of 775 nm. For the confocal microscopy, the skin was affixed to a cryostat stage with fixing compound and 20 µm slices were taken using a cryostat (Leica CM1950, Leica, Germany). The slices of skin were placed on negatively charged slides (Fisher Scientific, Pittsburgh, PA, USA) and imaged using a confocal microscope (Upright Zeiss LSM 710 NLO) with a 10× air objective.

[7] = Ex vivo skin penetration, Franz diffusion cell, mouse skin; assay type: in vitro ADME, mouse (Swiss Webster); details: 37 °C, 24 h, fluorescence, n = 3 skin samples
Procedure: Next, we validated the skin penetration of the nanosensors by coformulating unquenched, 5‐FAM labelled, thrombin substrate‐conjugated PEG nanoparticles (TDN‐FAM, Table S1, Supporting Information) and 30% CAGE solution. Ex vivo conditions were established by incubating TDN‐FAM/CAGE with mouse skin samples that were stabilized in a Franz diffusion cell set‐up.^[ [14], [15] ^] Three main layers of skin samples, namely stratum corneum, viable epidermis, and dermis, as well as the PBS solution underneath the skin (acceptor solution), were collected, and nanosensor concentration was quantified via fluorescence spectroscopy.
Figure 2 A) Quantification of TDN‐FAM extracted from different layers of mouse skin via fluorescence readout. SC: Stratum Corneum. […]
The skin penetration studies were undertaken using porcine skin in Franz diffusion cells, as described previously in full.^[ [23] ^] […] For quantitative analysis, the stratum corneum was removed by tape stripping (ten layers), the epidermis was separated from the dermis with a scalpel, and a 4 mm punch was used thrice to remove a third of the dermis (by area). […] 100 µL of the extracted fluid was then placed into a black Corning 96‐well plate and analyzed using a i3 SpectraMax plate reader, with excitation wavelength of 750 nm and an emission wavelength of 775 nm. […]

For “Cy7-GGfPRSGGGK-(EG)2-C-[8armPEG] [TDN‐Cy7, Unquenched Cy7 conjugated thrombosis detecting nanosensors on 8-arm PEG]”, the “ROC AUC” value ([1]; 6 h after intravenous injection) was 0.60, the “amount of reporter in urine vs healthy background” value ([1]; intravenous injection 6 h before thromboplastin, n = 5) was “not significantly different from healthy background” and the “urinary reporter signal, diseased vs healthy mice” value ([1]; topical 30% CAGE, 4 nmoles by peptide, thromboplastin 6 h after administration, urine 30 min later, normalised to plasma, n = 5, P = 0.0079) was “significantly increased”. The “ROC AUC” value ([1]; topical 30% CAGE, 6 h after nanosensor administration) was 1.00, the “ROC AUC” value ([1]; topical 30% CAGE, 12 h after nanosensor administration) was 1.00 and the “ROC AUC” value ([1]; topical 30% CAGE, 24 h after nanosensor administration) was 0.96. For the same substance, the “ROC AUC” value ([1]; topical 30% CAGE, 48 h after nanosensor administration) was 0.84, the “ROC AUC” value ([1]; topical 30% CAGE, 72 h after nanosensor administration) was 0.72 and the “diagnostic power of urinary reporter” value ([1]; topical 30% CAGE, thrombosis induced at 12 h, n = 5) was “retained their diagnostic power”. For the same substance, the “diagnostic power of urinary reporter” value ([1]; topical 30% CAGE, thrombosis induced at 24 hours, n = 5) was “retained their diagnostic power”, the “discrimination of diseased from healthy mice” value ([1]; topical 30% CAGE, thrombosis induced at 48 hours, n = 5) was “could not discriminate diseased from healthy mice” and the “discrimination of diseased from healthy mice” value ([1]; topical 30% CAGE, thrombosis induced at 72 hours, n = 5) was “could not discriminate diseased from healthy mice”.
With “5FAM-GGfPRSGGGK(CPQ2)-(EG)2-C-[8armPEG] [TDN‐qFAM, Quenched thrombosis detecting nanosensors: 5-FAM/CPQ2-flanked thrombin substrate peptide conjugated to 40 kDa 8-arm PEG nanoparticles]” the “aggregation associated size increase (>100 nm), dynamic light scattering” value ([2]; 30% CAGE solution vs PBS, ZetaSizer) was “did not exhibit any significant aggregation associated size increase”, the “mean hydrodynamic size when dissolved in CAGE” value ([2]; CAGE vs PBS, dynamic light scattering) was “slight increase” and the “absorption maximum at 495 nm (5-FAM) after storage” value [3] was “virtually unchanged”. For the same substance, the “cleavage in the absence of recombinant enzyme” value ([4]; 30% CAGE alone, no thrombin) was “no cleavage was observed”, the “cleavage (fluorescence dequenching) with recombinant thrombin” value ([4]; 30% CAGE, thrombin 10 × 10^-9 M, nanosensor 10 × 10^-6 M by peptide) was “clear cleavage profile with gradual increase in fluorescence intensity” and the “endogenous thrombin activity against nanosensor in mouse serum” value ([5]; 30% CAGE, n = 3 measurements) was “partially hindered”. The “functionality against thrombin cleavage in mouse serum on dilution of CAGE” value ([5]; stepwise dilution of CAGE with PBS (5%, 1%, 0.1%, 0%), n = 3) was “improved”, the “penetration into porcine skin” value ([6]; 30% CAGE, fluorescence, n = 3 skin slices) was “slight increase in penetration” and the “amount transported into porcine skin” value ([6]; in PBS, acceptor PBS, fluorescence) was “negligible amount”. The “penetration through porcine skin” value ([6]; undiluted (100%) CAGE, fluorescence and confocal microscopy, n = 3 skin slices) was “dramatically improved penetration”.
In the case of “5FAM-GGfPRSGGGK-(EG)2-C-[8armPEG] [TDN‐FAM, Unquenched 5-carboxyfluorescein conjugated thrombosis detecting nanosensors on 8-arm PEG]”, the “signal in dermis layer and acceptor solution” value ([7]; 30% CAGE vs PBS, 300 µL, acceptor PBS) is reported as “markedly increased signal” and the “recovery from dermis and acceptor layers” value ([7]; 50% CAGE vs 30% CAGE) is reported as “even higher recovery”.
